Test results published in US20050222207A1, “Phosphodiesterase 4 inhibitors, including N-substituted diarylamine analogs” (priority 2003, published 2005).

Tests used:
rats [1] = assay: Radial arm maze task in rats, in vivo test for learning and memory (MK-801 amnesia); set-up: species or system rat; settings: MK-801 0.1 mg/kg i.p., compared to control, p<0.01
Experimental: The test was performed as previously described (Zhang, H.-T., Crissman, A. M., Dorairaj, N. R., Chandler, L. J., and O'Donnell, J. M., Neuropsychopharmacology, 2000, 23, 198-204.). Five days after initial housing, rats (male Spraque-Dawley (Harlan) weighing 250 to 350 g) were placed in the eight-arm radial maze (each arm was 60×10×12 cm high; the maze was elevated 70 cm above the floor) for acclimation for two days. Rats were then placed individually in the center of the maze for 5 minutes with food pellets placed close to the food wells, and then, the next day, in the wells at the end of the arms; 2 sessions a day were conducted. Next, four randomly selected arms were then baited with one pellet of food each. The rat was restricted to the center platform (26 cm in diameter) for 15 seconds and then allowed to move freely throughout the maze until it collected all pellets of food or 10 minutes passed, whichever came first. Four parameters were recorded: 1) working memory errors, i.e., entries into baited arms that had already been visited during the same trial; 2) reference memory errors, i.e., entries into unbaited arms; 3) total arm entries; and 4) the test duration (seconds), i.e., the time spent in the collection of all the pellets in the maze. […]
(§1) All data were analyzed by analyses of variance (ANOVA); individual comparisons were made using Kewman-Keuls tests. […]

rats [2] = assay: Passive avoidance in rats, in vivo test for learning and memory (MK-801 amnesia); set-up: species or system rat; settings: MK-801 0.1 mg/kg, retention test 24 hours after shock, compared to vehicle, p<0.001
Experimental: The test was performed as previously described (Zhang, H.-T., Crissman, A. M., Dorairaj, N. R., Chandler, L. J., and O'Donnell, J. M., Neuropsychopharmacology, 2000, 23, 198-204.). The apparatus (Model E10-16SC, Coulbourn Instruments, Allentown, Pa.) consisted of a two-compartment chamber with an illuminated compartment connected to a darkened compartment by a guillotine door. The floor of the darkened compartment consisted of stainless steel rods through which an electric foot-shock could be delivered from a constant current source. All experimental groups were first habituated to the apparatus the day before the start of the experiment. During the training, the rat (Male Spraque-Dawley (Harlan) weighing 250 to 350 g) was placed in the illuminated compartment facing away from the closed guillotine door for 1 minute before the door was raised. The latency for entering the darkened compartment was recorded. After the rat entered the darkened compartment, the door was closed and a 0.5 mA electric shock was administered for 3 seconds. […] The latency for entering the darkened compartment was recorded for up to 180 seconds, at which time the trial was terminated.
as §1

Structure (SMILES)	frequency of reference memory errors (rats [1])	frequency of working memory errors (rats [1])	latency for entering the darkened compartment (rats [2])	melting point [°C]
C[C@]12N[C@H](Cc3ccccc31)c1ccccc12 [MK-801]	increased	increased	markedly reduced	
COc1cc(N(Cc2cncs2)c2ccc(C(=O)O)cc2)ccc1C(N)=O				196.7 to 196.8
